Columns and labels:
[1] = test system: barnyard grass; experiment: Test Example 3: herbicidal effect by foliage application, Wagner pot (Table 18, symbol H); assay type: in vivo, barnyard grass (Echinochloa crus-galli); settings: 320 g/ha
Method in brief: (§1)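 Plants were sown in alluvial soil held under 0.1–0.5 cm standing water and grown 14 days in a greenhouse at 25–30 °C. An emulsifiable formulation, water-diluted to the set dose, was then sprayed onto the foliage, and effects were scored three weeks later using previously defined criteria.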

[2] = test system: Chinese sprangletop; experiment: Test Example 3: herbicidal effect by foliage application, Wagner pot (Table 18, symbol D); assay type: in vivo, chinese sprangletop (Leptochloa chinensis); settings: 320 g/ha
Method in brief: as §1

[3] = test system: rice flat sedge; experiment: Test Example 3: herbicidal effect by foliage application, Wagner pot (Table 18, symbol E); assay type: in vivo, rice flat sedge (Cyperus iria); settings: 320 g/ha
Method in brief: as §1

[4] = test system: southern crabgrass; experiment: Test Example 4: herbicidal effect by soil treatment (Table 19, symbol F); assay type: in vivo, southern crabgrass (Digitaria ciliaris); settings: amount of applied herbicide 320 g/ha
Method in brief: (§2)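 Step 1: sow seeds in sterilized diluvial soil, cover ~1.5 cm. Step 2: spray diluted emulsion onto soil surface at predetermined rate. Step 3: greenhouse, 25–30° C, three weeks. Step 4: grade effect on each plant by earlier criteria.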

[5] = test system: green foxtail; experiment: Test Example 4: herbicidal effect by soil treatment (Table 19, symbol G); assay type: in vivo, green foxtail (Setaria viridis); settings: amount of applied herbicide 320 g/ha
Method in brief: as §2

[6] = test system: barnyard grass; experiment: Test Example 4: herbicidal effect by soil treatment (Table 19, symbol H); assay type: in vivo, barnyard grass (Echinochloa crus-galli); settings: amount of applied herbicide 320 g/ha
Method in brief: as §2

[7] = test system: wild oat; experiment: Test Example 4: herbicidal effect by soil treatment (Table 19, symbol I); assay type: in vivo, wild oat (Avena fatua); settings: amount of applied herbicide 320 g/ha
Method in brief: as §2

[8] = test system: blackgrass; experiment: Test Example 4: herbicidal effect by soil treatment (Table 19, symbol J); assay type: in vivo, blackgrass (Alopecurus myosuroides); settings: amount of applied herbicide 320 g/ha
Method in brief: as §2

[9] = test system: Italian ryegrass; experiment: Test Example 4: herbicidal effect by soil treatment (Table 19, symbol K); assay type: in vivo, Italian ryegrass (Lolium multiflorum); settings: amount of applied herbicide 320 g/ha
Method in brief: as §2

[10] = test system: windgrass; experiment: Test Example 4: herbicidal effect by soil treatment (Table 19, symbol L); assay type: in vivo, windgrass (Apera spica-venti); settings: amount of applied herbicide 320 g/ha
Method in brief: as §2

[11] = test system: velvetleaf; experiment: Test Example 4: herbicidal effect by soil treatment (Table 19, symbol M); assay type: in vivo, velvetleaf (Abutilon theophrasti); settings: amount of applied herbicide 320 g/ha
Method in brief: as §2

[12] = test system: redroot pigweed; experiment: Test Example 4: herbicidal effect by soil treatment (Table 19, symbol N); assay type: in vivo, redroot pigweed (Amaranthus retroflexus); settings: amount of applied herbicide 320 g/ha
Method in brief: as §2

[13] = test system: lambsquarters; experiment: Test Example 4: herbicidal effect by soil treatment (Table 19, symbol O); assay type: in vivo, lambsquarters (Chenopodium album); settings: amount of applied herbicide 320 g/ha
Method in brief: as §2

[14] = test system: chickweed; experiment: Test Example 4: herbicidal effect by soil treatment (Table 19, symbol P); assay type: in vivo, common chickweed (Stellaria media); settings: amount of applied herbicide 320 g/ha
Method in brief: as §2

[15] = test system: persian speedwell; experiment: Test Example 4: herbicidal effect by soil treatment (Table 19, symbol R); assay type: in vivo, Persian speedwell (Veronica persica); settings: amount of applied herbicide 320 g/ha
Method in brief: as §2

[16] = test system: southern crabgrass; experiment: Test Example 5: herbicidal effect by foliage application, plastic box (Table 20, symbol F); assay type: in vivo, southern crabgrass (Digitaria ciliaris); settings: amount of applied herbicide 320 g/ha; foliage application after 14-day growth; evaluated three weeks after application
Method in brief: (§3)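 Foliar spray test: emulsion formulation diluted in water to a set application rate, sprayed onto 14-day-old plants raised in diluvial soil at 25° C to 30° C under glass. Both herbicidal effect and crop effect rated visually three weeks later.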

[17] = test system: green foxtail; experiment: Test Example 5: herbicidal effect by foliage application, plastic box (Table 20, symbol G); assay type: in vivo, green foxtail (Setaria viridis); settings: amount of applied herbicide 320 g/ha; foliage application after 14-day growth; evaluated three weeks after application
Method in brief: as §3

[18] = test system: barnyard grass; experiment: Test Example 5: herbicidal effect by foliage application, plastic box (Table 20, symbol H); assay type: in vivo, barnyard grass (Echinochloa crus-galli); settings: amount of applied herbicide 320 g/ha; foliage application after 14-day growth; evaluated three weeks after application
Method in brief: as §3

[19] = test system: wild oat; experiment: Test Example 5: herbicidal effect by foliage application, plastic box (Table 20, symbol I); assay type: in vivo, wild oat (Avena fatua); settings: amount of applied herbicide 320 g/ha; foliage application after 14-day growth; evaluated three weeks after application
Method in brief: as §3

[20] = test system: blackgrass; experiment: Test Example 5: herbicidal effect by foliage application, plastic box (Table 20, symbol J); assay type: in vivo, blackgrass (Alopecurus myosuroides); settings: amount of applied herbicide 320 g/ha; foliage application after 14-day growth; evaluated three weeks after application
Method in brief: as §3

[21] = test system: Italian ryegrass; experiment: Test Example 5: herbicidal effect by foliage application, plastic box (Table 20, symbol K); assay type: in vivo, Italian ryegrass (Lolium multiflorum); settings: amount of applied herbicide 320 g/ha; foliage application after 14-day growth; evaluated three weeks after application
Method in brief: as §3

[22] = test system: windgrass; experiment: Test Example 5: herbicidal effect by foliage application, plastic box (Table 20, symbol L); assay type: in vivo, windgrass (Apera spica-venti); settings: amount of applied herbicide 320 g/ha; foliage application after 14-day growth; evaluated three weeks after application
Method in brief: as §3

[23] = test system: velvetleaf; experiment: Test Example 5: herbicidal effect by foliage application, plastic box (Table 20, symbol M); assay type: in vivo, velvetleaf (Abutilon theophrasti); settings: amount of applied herbicide 320 g/ha; foliage application after 14-day growth; evaluated three weeks after application
Method in brief: as §3

[24] = test system: redroot pigweed; experiment: Test Example 5: herbicidal effect by foliage application, plastic box (Table 20, symbol N); assay type: in vivo, redroot pigweed (Amaranthus retroflexus); settings: amount of applied herbicide 320 g/ha; foliage application after 14-day growth; evaluated three weeks after application
Method in brief: as §3

[25] = test system: lambsquarters; experiment: Test Example 5: herbicidal effect by foliage application, plastic box (Table 20, symbol O); assay type: in vivo, lambsquarters (Chenopodium album); settings: amount of applied herbicide 320 g/ha; foliage application after 14-day growth; evaluated three weeks after application
Method in brief: as §3

[26] = test system: chickweed; experiment: Test Example 5: herbicidal effect by foliage application, plastic box (Table 20, symbol P); assay type: in vivo, common chickweed (Stellaria media); settings: amount of applied herbicide 320 g/ha; foliage application after 14-day growth; evaluated three weeks after application
Method in brief: as §3

[27] = test system: persian speedwell; experiment: Test Example 5: herbicidal effect by foliage application, plastic box (Table 20, symbol R); assay type: in vivo, Persian speedwell (Veronica persica); settings: amount of applied herbicide 320 g/ha; foliage application after 14-day growth; evaluated three weeks after application
Method in brief: as §3

COc1cccc(-c2sc3c(C)cccc3c2-c2c(O)c(C)nn(C)c2=O)c1 [4-108]
herbicidal effect on barnyard grass (H) [1]: 4 (Herbicidal rate of 70% or more and less than 90%)
herbicidal effect on Chinese sprangletop (D) [2]: 0 (Herbicidal rate of 5% or less (almost no effect))
herbicidal effect on rice flat sedge (E) [3]: 5 (Herbicidal rate of 90% or more (almost completely withered))
Herbicidal effect by soil treatment, F: southern crabgrass [4]: 2 (Herbicidal rate of 20% or more and less than 40%)
Herbicidal effect by soil treatment, G: green foxtail [5]: 0 (Herbicidal rate of 5% or less (almost no effect))
Herbicidal effect by soil treatment, H: barnyard grass [6]: 0 (Herbicidal rate of 5% or less (almost no effect))
Herbicidal effect by soil treatment, I: wild oat [7]: 0 (Herbicidal rate of 5% or less (almost no effect))
Herbicidal effect by soil treatment, J: blackgrass [8]: 2 (Herbicidal rate of 20% or more and less than 40%)
Herbicidal effect by soil treatment, K: Italian ryegrass [9]: 1 (Herbicidal rate of 5% or more and less than 20%)
Herbicidal effect by soil treatment, L: windgrass [10]: 0 (Herbicidal rate of 5% or less (almost no effect))
Herbicidal effect by soil treatment, M: velvetleaf [11]: 3 (Herbicidal rate of 40% or more and less than 70%)
Herbicidal effect by soil treatment, N: redroot pigweed [12]: 5 (Herbicidal rate of 90% or more (almost completely withered))
Herbicidal effect by soil treatment, O: lambsquarters [13]: 4 (Herbicidal rate of 70% or more and less than 90%)
Herbicidal effect by soil treatment, P: chickweed [14]: 1 (Herbicidal rate of 5% or more and less than 20%)
Herbicidal effect by soil treatment, R: persian speedwell [15]: 3 (Herbicidal rate of 40% or more and less than 70%)
Herbicidal effect by foliage application, F: southern crabgrass [16]: 3 (Herbicidal rate of 40% or more and less than 70%)
Herbicidal effect by foliage application, G: green foxtail [17]: 3 (Herbicidal rate of 40% or more and less than 70%)
Herbicidal effect by foliage application, H: barnyard grass [18]: 2 (Herbicidal rate of 20% or more and less than 40%)
Herbicidal effect by foliage application, I: wild oat [19]: 0 (Herbicidal rate of 5% or less (almost no effect))
Herbicidal effect by foliage application, J: blackgrass [20]: 4 (Herbicidal rate of 70% or more and less than 90%)
Herbicidal effect by foliage application, K: Italian ryegrass [21]: 5 (Herbicidal rate of 90% or more (almost completely withered))
Herbicidal effect by foliage application, L: windgrass [22]: 0 (Herbicidal rate of 5% or less (almost no effect))
Herbicidal effect by foliage application, M: velvetleaf [23]: 4 (Herbicidal rate of 70% or more and less than 90%)
Herbicidal effect by foliage application, N: redroot pigweed [24]: 4 (Herbicidal rate of 70% or more and less than 90%)
Herbicidal effect by foliage application, O: lambsquarters [25]: 4 (Herbicidal rate of 70% or more and less than 90%)
Herbicidal effect by foliage application, P: chickweed [26]: 5 (Herbicidal rate of 90% or more (almost completely withered))
Herbicidal effect by foliage application, R: persian speedwell [27]: 5 (Herbicidal rate of 90% or more (almost completely withered))

Source: patent US20230085307A1, “PYRIDAZINONE COMPOUND AND HERBICIDE” (NISSAN CHEMICAL CORPORATION, priority 2019, published 2023)
